Measured values: patent publication US10123861B2, “Bag for packaging diluted animal semen suitable for artificial insemination, in particular of porcine species; and system comprising same” (IMV TECHNOLOGIES, priority 2014, dated 2018)

Experiment: Amount of triclosan released from the bag into the dilution extender (LC-MS-MS)
Type: physicochemical
Conditions: bag of Example 3; for Amount of triclosan released into the dose / Proportion of triclosan released into the dose: five days, 17° C.; for Amount of triclosan released into the dose: full dose 70 ml; for Proportion of triclosan released into the dose: relative to approximately 532 μg in parts facing the pouch
Text: A description will now be given of the trials with the bag of Example 3 to determine the amount of triclosan released into the dose of diluted semen such as 27 contained in the pouch such as 14 of that bag.
To simplify the trials, it was not a dose of diluted semen which was preserved in the bag but only dilution extender.
In this case, the dilution extender 53 (hereinafter “extender A”) and a conventional dilution extender containing an antibiotic (hereinafter “extender B”) were used.
One bag of Example 3 is filled with a dose of extender A and one bag of Example 3 with a dose of extender B.
Next the bags are left to rest for five days in the usual preservation conditions, that is to say 17° C. in horizontal position.
Next, the extender contained in each bag is analyzed, in order to determine the concentration of triclosan.
This analysis is made by liquid chromatography tandem mass spectrometry (LC-MS-MS method).
Based on the concentrations obtained, the amount of triclosan released is determined in a full dose provided to be contained in the bag, that is to say 70 ml.
It will be noted that the weight of triclosan taken into account in the sheets such as 11 and 12 of the bag of Example 3 for calculating the proportion released is not the weight of triclosan in the entirety of these sheets, but only in the parts facing the pouch such as 14. Here, these parts weigh approximately 1.835 g (determined after cutting out and weighing). As there are 29 mg of triclosan for 100 g of sheet. The amount of triclosan contained in these parts is approximately 532 μg.

[1] = Extender A (without antibiotic)
[2] = Extender B (containing an antibiotic)

SMILES: Oc1cc(Cl)ccc1Oc1ccc(Cl)cc1Cl [triclosan]
- Amount of triclosan released into the dose [1]: 2.7 µg
- Proportion of triclosan released into the dose [1]: 0.5%
- Amount of triclosan released into the dose [2]: 1.9 µg
- Proportion of triclosan released into the dose [2]: 0.35%
- amounts released into the dilution extenders (comment on the release results): around 1%
